The CheMixHub viscosity set

Test: xn = mol fraction of the nth substance listed

CCCCCCn1cc[n+](C)c1.[Br-] + O
303.15 K, 101 kPa
Conditions	viscosity [mPa·s]
x2 = 0.2196	695.5
x2 = 0.2978	395.5

C[n+]1cc([O-])on1 + O
313.15 K, 101 kPa
Conditions	viscosity [mPa·s]
x2 = 0.1304	4.405
x2 = 0.2625	3.634
x2 = 0.4242	2.894
x2 = 0.6104	2.178
x2 = 0.7384	1.687
x2 = 0.882	1.121
x2 = 0.9089	1.015
x2 = 0.9709	0.775
x2 = 0.9746	0.768

FCC(F)(F)F + OCCO
viscosity [mPa·s], 101.32 kPa
Conditions	x2 = 0.948	x2 = 0.949	x2 = 0.964	x2 = 0.965	x2 = 0.974	x2 = 0.975
293.15 K	16.9	–	17.1	–	17.9	–
313.15 K	–	7.76	–	7.91	–	7.86

FCC(F)(F)F + OCCOCCO
viscosity [mPa·s], 101.32 kPa
Conditions	x2 = 0.788	x2 = 0.814	x2 = 0.816	x2 = 0.844	x2 = 0.845	x2 = 0.892	x2 = 0.893
293.15 K	12.4	14.3	–	16.7	–	21	–
313.15 K	–	–	6.78	–	7.29	–	8.26

FCC(F)(F)F + OCCOCCOCCO
viscosity [mPa·s], 101.32 kPa
Conditions	x2 = 0.732	x2 = 0.733	x2 = 0.79	x2 = 0.791	x2 = 0.901	x2 = 0.903
293.15 K	11.3	–	15.8	–	28.9	–
313.15 K	–	5.52	–	7.14	–	11.2

CC(=O)c1ccccc1 + OCc1ccccc1
303.15 K, 101 kPa
Conditions	viscosity [mPa·s]
x1 = 0.0742	4.331
x1 = 0.2566	3.618
x1 = 0.3107	3.42
x1 = 0.4505	2.937
x1 = 0.528	2.685
x1 = 0.5727	2.544
x1 = 0.7494	2.036
x1 = 0.8383	1.82
x1 = 0.9234	1.638

C[N+](C)(C)C.[Cl-] + Oc1ccccc1
viscosity [mPa·s], 101 kPa
Conditions	303.15 K	313.15 K	323.15 K
x1 = 0.2	23.35	16.88	11.9
x1 = 0.25	36.91	23.75	16.31

O=S(Cl)Cl + [Cl-].[Cl-].[Cl-].[Cl-].[Sn+4]
298.15 K, 101 kPa
Conditions	viscosity [mPa·s]
x1 = 0.402	0.7259
x1 = 0.517	0.7057
x1 = 0.803	0.6524

ClC(Cl)C(Cl)(Cl)Cl + c1ccc(Oc2ccccc2)cc1
298.15 K, 101 kPa
Conditions	viscosity [mPa·s]
x2 = 0.2642	2.64
x2 = 0.5109	2.97
x2 = 0.7611	3.36

C1COCO1 + c1ccccc1
101.3 kPa
Conditions	viscosity [mPa·s]
298.15 K, x2 = 0.0968	0.5944
298.15 K, x2 = 0.199	0.597
298.15 K, x2 = 0.3032	0.5997
298.15 K, x2 = 0.4021	0.6022
298.15 K, x2 = 0.505	0.6045
298.15 K, x2 = 0.6016	0.6064
298.15 K, x2 = 0.704	0.6079
298.15 K, x2 = 0.7993	0.6089
298.15 K, x2 = 0.8946	0.6094
313.15 K, x2 = 0.1006	0.5001
313.15 K, x2 = 0.1994	0.5003
313.15 K, x2 = 0.299	0.5005
313.15 K, x2 = 0.3987	0.5005
313.15 K, x2 = 0.5003	0.5004
313.15 K, x2 = 0.5985	0.4998
313.15 K, x2 = 0.6993	0.4988
313.15 K, x2 = 0.7998	0.4976
313.15 K, x2 = 0.8987	0.4959

CC(=O)c1ccccc1 + c1ccccc1
298.15 K, 101 kPa
Conditions	viscosity [mPa·s]
x1 = 0.5	0.942
x1 = 0.75	1.27

CCC(O)CC + c1ccccc1
293.15 K, 101 kPa
Conditions	viscosity [mPa·s]
x1 = 0.00635	0.6446
x1 = 0.01101	0.6433
x1 = 0.01253	0.643
x1 = 0.01995	0.6415
x1 = 0.02106	0.6411
x1 = 0.02501	0.641
x1 = 0.02806	0.6407
x1 = 0.03344	0.6406
x1 = 0.03446	0.6405
x1 = 0.03706	0.6399
x1 = 0.04178	0.6401
x1 = 0.04896	0.6415
x1 = 0.05587	0.6414
x1 = 0.06451	0.6436
x1 = 0.08637	0.6486
x1 = 0.1808	0.6856
x1 = 0.2725	0.7429
x1 = 0.3756	0.835
x1 = 0.468	0.9578
x1 = 0.6521	1.402
x1 = 0.7757	1.943
x1 = 0.8899	2.92

CCCCCCCC/C=C\CCCCCCCC(=O)OCC(COC(=O)CCCCCCC/C=C\CCCCCCCC)OC(=O)CCCCCCC/C=C\CCCCCCCC + c1ccccc1
viscosity [mPa·s], 101.3 kPa
Conditions	x1 = 0.000368	x1 = 0.000535	x1 = 0.001078	x1 = 0.002049	x1 = 0.004187	x1 = 0.006457	x1 = 0.008697	x1 = 0.01009
298.15 K	0.613	0.6159	0.6281	0.6494	0.7009	0.7579	0.8092	0.8347
303.15 K	0.572	0.5754	0.5855	0.6052	0.6529	0.7052	0.7525	0.7753
308.15 K	0.5349	0.5384	0.5476	0.5658	0.6095	0.6577	0.7013	0.7219

Cc1cccc(C)n1 + c1ccccc1
viscosity [mPa·s], 101 kPa
Conditions	x1 = 0.0985	x1 = 0.1989	x1 = 0.2996	x1 = 0.3945	x1 = 0.5025	x1 = 0.5994	x1 = 0.6976	x1 = 0.8006	x1 = 0.9013
303 K	0.5677	0.58	0.607	0.6191	0.6385	0.6614	0.6823	0.7108	0.7403
313 K	0.501	0.514	0.5301	0.5472	0.5654	0.5824	0.6012	0.6267	0.648
323 K	0.4471	0.4595	0.4735	0.4858	0.5011	0.5177	0.5355	0.5569	0.5778

O=S(Cl)Cl + c1ccccc1
298.15 K, 101 kPa
Conditions	viscosity [mPa·s]
x1 = 0.181	0.5962
x1 = 0.366	0.5999
x1 = 0.481	0.602
x1 = 0.686	0.6068
x1 = 0.877	0.6165
